In patent US10888556B2, “Method for treating myopia with an nsaid and an anti-muscarinic agent” (KAOHSIUNG CHANG GUNG MEMORIAL HOSPITAL, priority 2013, dated 2021):

How the values were obtained:
human SSPC = assay: Col2 and α-SMA expression in human SSPC treated with TGF-β2 (western blot); assay type: cell-based; settings: in the presence of TGF-β2 (10 ng/ml), 1 mM atropine, 5 mM ketorolac, 1 mM diclofenac
Procedure: Different concentrations of TGF-β2 were added into 12-wells of SSPCs. After 24 hrs, the images of SSPC morphology were recorded. The total RNA was extracted for further analysis. A chamber slide culture for the immunofluorescence study was performed under the same condition.
The total protein from the sclera was extract by using RIPA protein extraction buffer. After homogenization of scleral tissue, the sample was centrifuged and the supernatant was collected. The protein concentration of each sample was measured using a BCA™ protein Assay Kit (Bio-Rad). Scleral protein samples were standardized and electrophoresed on 10% SDS-PAGE gel, then transferred to a polyvinylidene fluoride transfer membrane (Immun-Blot PVDF Membrane, BIO-RAD) at 21 V for 1 h. Membranes were blocked for 1 h at room temperature with 5% dry milk in PBS with 0.1% Tween and incubated at 4° C. overnight with primary antibodies. Membranes were washed and incubated with 1:10,000 goat anti-mouse or anti-rabbit IgG antibodies conjugated to horseradish peroxidase (Santa Cruz) for 1 h at room temperature and washed again. Membranes were developed by chemiluminescence with the reagent Lumigen TMA-6 (GE Healthcare UK limited, Buckinghumshire, UK) and images were captured with the LAS-4000 imaging system (Fujifilm, Tokyo, Japan). Protein bands were quantified using ImageJ software.
An in vitro study examining the effect of an anti-muscarinic agent and NSAID on Col2 and α-SMA expressions was performed using human SSPC.

TNF-α = assay: Expression of inflammation markers in choroids of FDM mice (real-time PCR); assay type: in vivo; settings: FDM eye of mice, one ketorolac eye drop once a day
Procedure: (§1) Total RNA from SSPCs or the choroid tissue in each eye was isolated using Trizol (Invitrogen, Carlsbad, Calif.) accordingly to the manufacture's protocol. qRT-PCR analysis was carried out using the iScript one-step RT-PCR kit with SYBR Green (Bio-Rad, Hercules, USA) on an ABI PRISM 7900 HT sequence detection system (Applied Biosystems, Foster City, USA), according to the manufacturer's instructions. […] Ct values of the control gene were subtracted from those of α-SMA and Col2 to provide a semiquantitative analysis, and fold change relative to no treatment was assessed.
On the day of the experiment (postnatal day [P] 21˜24), C57BL/6J mice were anesthetized by intraperitoneal injection of ketamine (90 mg/kg) and xylazine (10 mg/kg), and the diffuser eye patches were sutured to the skin around the right eye whereas the left eye served as a control. […] The mice were recovered and monitored on a warming pad until they were fully mobile. […]
An in vivo study evaluating the expression of inflammation markers in the choroid was evaluated using FDM Mice. […]

myopic patient = assay: Treating a myopia subject with NSAID (ketorolac ophthalmic solution); assay type: in vivo, human; settings: one patient, both eyes, after three months of about 0.5% ketorolac, one drop at night
Procedure: The dose of ketorolac was about 0.5% weight ketorolac per unit dose (about 0.05 to 0.5 ml) and the affected eye was given one drop (about 0.05 to 0.5 ml) of ketorolac ophthalmic solution at night.

SSPCs = assay: α-SMA and Col2 expression in SSPCs treated with TGF-β2, atropine/ketorolac combination; assay type: cell-based, mouse; settings: in the presence of TGF-β2 10 ng/ml, 0.5 mM atropine, 2.5 mM ketorolac, or combination
Procedure: In brief, sclera from the mouse was obtained and was carefully dissected away from limbus and optic disc under a dissection microscope. After retina and choroid tissues were removed, the scleral tissue was cut into small pieces and digested with 1.5 mg/ml collagenase type I (Worthington Biochemical, Lakewood, USA) and 2 mg/ml of dispase (Roche, Basel, Switzerland) in PBS for 1 h at 37° C. to release individual cells. Individual cells were cultured in α-MEM (Invitrogen, Carlsbad, USA), supplemented with 20% lot-selected FBS (Equitech-Bio, Kerrville, USA), glutamine, penicillin/streptomycin and 100 mM 2-mercaptoethanol (Invitrogen) for 8 to 10 days at 5% CO2, 37° C.
Total RNA from SSPCs or the choroid tissue in each eye was isolated using Trizol (Invitrogen, Carlsbad, Calif.) accordingly to the manufacture's protocol. qRT-PCR analysis was carried out using the iScript one-step RT-PCR kit with SYBR Green (Bio-Rad, Hercules, USA) on an ABI PRISM 7900 HT sequence detection system (Applied Biosystems, Foster City, USA), according to the manufacturer's instructions. […] Ct values of the control gene were subtracted from those of α-SMA and Col2 to provide a semiquantitative analysis, and fold change relative to no treatment was assessed. […]

SSPC = assay: Effect of TGF-β2 treatment on α-SMA and Col2 gene expression in SSPC (quantitative Real Time-PCR); assay type: cell-based, mouse; settings: 0.1 to 10 ng/ml TGF-β2 for 24 hrs, dose dependent
Procedure: The SSPCs were isolated and cultured as previously described by CL Tsai et al. (Identification of multipotent stem/progenitor cells in murine sclera. Invest Ophthalmol Vis Sci 52:5481-5487, 2011). In brief, sclera from the mouse was obtained and was carefully dissected away from limbus and optic disc under a dissection microscope. After retina and choroid tissues were removed, the scleral tissue was cut into small pieces and digested with 1.5 mg/ml collagenase type I (Worthington Biochemical, Lakewood, USA) and 2 mg/ml of dispase (Roche, Basel, Switzerland) in PBS for 1 h at 37° C. to release individual cells. […]
Different concentrations of TGF-β2 were added into 12-wells of SSPCs. After 24 hrs, the images of SSPC morphology were recorded. […]
as §1, with “assessed. […]” for “assessed.”

**Q.** What does the source list for `CN1[C@@H]2CC[C@H]1C[C@@H](OC(=O)C(CO)c1ccccc1)C2` (stereo partly drawn) [atropine]?
**A.** expression of Col2 (human SSPC): suppressed; expression of α-SMA (human SSPC): suppressed

**Q.** How did the “expression of Col2” value (human SSPC) turn out when `O=C(O)Cc1ccccc1Nc1c(Cl)cccc1Cl` [diclofenac] was run?
**A.** suppressed

**Q.** What about the “expression of α-SMA” value (human SSPC) of the same molecule?
**A.** suppressed

**Q.** With `O=C(c1ccccc1)c1ccc2n1CCC2C(=O)O` (stereo not drawn) [ketorolac] as the molecule, how does the “level of TNF-α in the choroids” value (TNF-α) read?
**A.** suppressed

**Q.** What about the myopia progression (myopic patient) of the same molecule?
**A.** no myopia progression

**Q.** And the “expression of Col2” value (SSPCs)?
**A.** reduced

**Q.** What about the “expression of α-SMA” value (SSPCs) of the same molecule?
**A.** reduced

**Q.** And the “expression of Col2” value (human SSPC)?
**A.** suppressed

**Q.** And the “expression of α-SMA” value (human SSPC)?
**A.** suppressed

B1: TGF-β2: Transforming growth factor beta 2 (SEQ ID NO:5), ocular chondrogenic protein used to induce α-SMA and Col2 in SSPC (protein, listed as Homo sapiens)
chain: MHYCVLSAFLILHLVTVALSLSTCSTLDMDQFMRKRIEAIRGQILSKLKLTSPPEDYPEPEEVPPEVISIYNSTRDLLQEKASRRAAACERERSDEEYYAKEVYKIDMPPFFPSEAIPPTFYRPYFRIVRFDVSAMEKNASNLVKAEFRVFRLQNPKARVPEQRIELYQILKSKDLTSPTQRYIDSKVVKTRAEGEWLSFDVTDAVHEWLHHKDRNLGFKISLHCPCCTFVPSNNYIIPNKSEELEARFAGIDGTSTYTSGDQKTIKSTRKKNSGKTPHLLLMLLPSYRLESQQTNRRKKRALDAAYCFRNVQDNCCLRPLYIDFKRDLGWKWIHEPKGYNANFCAGACPYLWSSDTQHSRVLSLYNTINPEASASPCCVSQDLEPLTILYYIGKTPKIEQLSNMIVKSCKCS
modifications: Transforming growth factor beta-2 (TGF-beta-2)
**Q.** For B1, which α-SMA gene expression (SSPC; p<0.0001) is on record?
**A.** statistically significant increase

**Q.** And the Col2 gene expression (SSPC; p=0.011)?
**A.** statistically significant increase
